In paper PMC5975062 (Alzheimer's & Dementia : Translational Research & Clinical …, 2015):

How the values were obtained:
[1] = Phase 1 plasma pharmacokinetics after single and multiple oral doses; type: in vivo, human; settings: for AUC(0-t) / half-life / Tmax: human, plasma, oral; for AUC(0-t): plasma AUC0–12 h
[2] = Phase 1 CSF pharmacokinetics; type: in vivo, human; settings: for concentration at 12 h: Min (C 12 h)
[3] = 50 mg bid solution, fasted, nonelderly, day 11, geo mean (CV%)

- AUC(0-t) ([1]; 100 mg, 100 mg bid solution, fed, nonelderly, day 11, geo mean (CV%)): 969 ng·h/mL
- half-life ([1]; 100 mg, plasma t1/2 (apparent terminal), 100 mg bid solution, fed, nonelderly, day 11, geo mean (CV%)): 3.46 h
- half-life ([1]; 100 mg, plasma t1/2,eff (2–12 h postdose), 100 mg bid solution, fed, nonelderly, day 11, geo mean (CV%)): 2.44 h
- Tmax ([1]; 100 mg, plasma tmax, 100 mg bid solution, fed, nonelderly, day 11, median (min–max)): 0.75 h
- AUC(0-t) ([1]; 200 mg, 200 mg bid capsule, fasted, elderly, day 7, geo mean (CV%)): 3890 ng·h/mL
- half-life ([1]; 200 mg, plasma t1/2 (apparent terminal), 200 mg bid capsule, fasted, elderly, day 7, geo mean (CV%)): 7.55 h
- half-life ([1]; 200 mg, plasma t1/2,eff (2–12 h postdose), 200 mg bid capsule, fasted, elderly, day 7, geo mean (CV%)): 3.08 h
- Tmax ([1]; 200 mg, plasma tmax, 200 mg bid capsule, fasted, elderly, day 7, median (min–max)): 1 h
- AUC(0-t) ([1]; 500 mg, 500 mg bid capsule, fed, nonelderly, day 11, geo mean (CV%)): 9300 ng·h/mL
- half-life ([1]; 500 mg, plasma t1/2 (apparent terminal), 500 mg bid capsule, fed, nonelderly, day 11, geo mean (CV%)): 6.82 h
- half-life ([1]; 500 mg, plasma t1/2,eff (2–12 h postdose), 500 mg bid capsule, fed, nonelderly, day 11, geo mean (CV%)): 3.01 h
- Tmax ([1]; 500 mg, plasma tmax, 500 mg bid capsule, fed, nonelderly, day 11, median (min–max)): 3 h
- Tmax ([1]; mean plasma tmax, single 10–400 mg solution, fasted): 0.5 h
- half-life ([1]; plasma t1/2,eff, after bid doses): 2 to 3 h
- Tmax ([1]; plasma tmax, generally observed, all formulations and doses): 0.5 to 1.5 h
- Tmax ([1]; plasma tmax, repeated dosing, compared with CSF): 0.5 to 1 h
- half-life ([1]; terminal plasma t1/2, single doses, across dose range): 2 to 8 h
- time to steady-state ([1]; multiple bid dosing, morning trough plasma concentrations): ≤ 2 days
- plasma trough (12 hours postdose) lower than peak levels ([1]; repeated bid dosing ≥50 mg, steady state): up to 61 fold
- increase in AUC with ninefold increase in dose ([1]; single doses 200–1800 mg): 24 fold
- CSF AUC(0–12 h) ([2]; 20 mg bid solution, fasted, nonelderly, day 11, estimated as plasma AUC × 0.05): 6 ng·h/mL
- CSF concentration, Max (C 3 h) ([2]; 20 mg bid solution, fasted, nonelderly, day 11, estimated, mean × 1.6): 0.8 ng/mL
- CSF AUC(0–12 h) [2, 3]: 17.3 (34.8) ng.h/mL
- CSF concentration, Max (C 3 h) [2, 3]: 2.32 (34.5) ng/mL
- CSF AUC(0–12 h) ([2]; 100 mg bid solution, fed, nonelderly, day 11, geo mean (CV%)): 44.7 (27.2) ng.h/mL
- CSF AUC(0–12 h) ([2]; 200 mg bid capsule, fasted, elderly, day 7, estimated as plasma AUC × 0.05): 195 ng·h/mL
- CSF concentration, Max (C 3 h) ([2]; 200 mg bid capsule, fasted, elderly, day 7, estimated, mean × 1.6): 25.9 ng/mL
- CSF AUC(0–12 h) ([2]; 200 mg bid solution, fasted, nonelderly, day 11, estimated as plasma AUC × 0.05): 91.7 ng·h/mL
- CSF concentration, Max (C 3 h) ([2]; 300 mg bid capsule, fasted, elderly, day 7, estimated, mean × 1.6): 37.7 ng/mL
- CSF AUC(0–12 h) ([2]; 300 mg bid capsule, fasted, elderly, day 7, geo mean (CV%)): 275 (40.7) ng.h/mL
- CSF AUC(0–12 h) ([2]; 400 mg bid capsule, fasted, nonelderly, day 11, geo mean (CV%)): 236 (25.0) ng.h/mL
- CSF concentration, Max (C 3 h) ([2]; 500 mg bid capsule, fed, nonelderly, day 11, estimated, mean × 1.6): 62.0 ng/mL
- CSF concentration, Max (C 3 h) ([2]; 500 mg bid tablet, fasted, elderly, day 11, estimated, mean × 1.6): 79.0 ng/mL
- CSF AUC(0–12 h) ([2]; 500 mg bid tablet, fasted, elderly, day 11, geo mean (CV%)): 530 (36.6) ng.h/mL
- CSF AUC(0–12 h) ([2]; 800 mg bid tablet, fasted, elderly, day 11, estimated as plasma AUC × 0.05): 1230 ng·h/mL
- CSF concentration, Max (C 3 h) ([2]; 800 mg bid tablet, fasted, elderly, day 11, estimated, mean × 1.6): 163.7 ng/mL
- concentration at 3 h ([2]; human, CSF, oral, 100 mg, CSF concentration, Max (C 3 h), 100 mg bid solution, fed, nonelderly, day 11, geo mean (CV%)): 6.02 ng/mL
- concentration at 12 h ([2]; human, CSF, oral, 100 mg, CSF concentration, 100 mg bid solution, fed, nonelderly, day 11, geo mean (CV%)): 1.92 ng/mL
- half-life ([2]; human, CSF, oral, 100 mg, CSF t1/2, 100 mg bid solution, fed, nonelderly, day 11, geo mean (CV%)): 6.38 h
- concentration at 12 h ([2]; human, CSF, oral, 200 mg, CSF concentration, 200 mg bid capsule, fasted, elderly, day 7, estimated, mean × 0.53): 8.6 ng/mL
- concentration at 12 h ([2]; human, CSF, oral, 500 mg, CSF concentration, 500 mg bid capsule, fed, nonelderly, day 11, estimated, mean × 0.53): 20.5 ng/mL
- CSF trough lower than peak levels ([2]; repeated bid dosing ≥50 mg): approximately threefold lower
- time of highest concentrations in the CSF ([2]; single oral solution, CSF sampling 1, 1.5 and 3 hours): 3 h
SMILES: CCCOc1ccc([C@H]2CNC(=O)N2c2ccc3[nH]cnc3c2)cc1 [PQ912]
